This passage reports EC50 results from patent US11116760B2 (Gilead Sciences, Inc., priority 2018, dated 2021).

In general, EC50 refers to the midpoint of the concentration-response curve. A lower EC50 goes with greater potency.

SMILES strings stand for the structures.

Sequence of α4β7 integrin (P13612 34-1032): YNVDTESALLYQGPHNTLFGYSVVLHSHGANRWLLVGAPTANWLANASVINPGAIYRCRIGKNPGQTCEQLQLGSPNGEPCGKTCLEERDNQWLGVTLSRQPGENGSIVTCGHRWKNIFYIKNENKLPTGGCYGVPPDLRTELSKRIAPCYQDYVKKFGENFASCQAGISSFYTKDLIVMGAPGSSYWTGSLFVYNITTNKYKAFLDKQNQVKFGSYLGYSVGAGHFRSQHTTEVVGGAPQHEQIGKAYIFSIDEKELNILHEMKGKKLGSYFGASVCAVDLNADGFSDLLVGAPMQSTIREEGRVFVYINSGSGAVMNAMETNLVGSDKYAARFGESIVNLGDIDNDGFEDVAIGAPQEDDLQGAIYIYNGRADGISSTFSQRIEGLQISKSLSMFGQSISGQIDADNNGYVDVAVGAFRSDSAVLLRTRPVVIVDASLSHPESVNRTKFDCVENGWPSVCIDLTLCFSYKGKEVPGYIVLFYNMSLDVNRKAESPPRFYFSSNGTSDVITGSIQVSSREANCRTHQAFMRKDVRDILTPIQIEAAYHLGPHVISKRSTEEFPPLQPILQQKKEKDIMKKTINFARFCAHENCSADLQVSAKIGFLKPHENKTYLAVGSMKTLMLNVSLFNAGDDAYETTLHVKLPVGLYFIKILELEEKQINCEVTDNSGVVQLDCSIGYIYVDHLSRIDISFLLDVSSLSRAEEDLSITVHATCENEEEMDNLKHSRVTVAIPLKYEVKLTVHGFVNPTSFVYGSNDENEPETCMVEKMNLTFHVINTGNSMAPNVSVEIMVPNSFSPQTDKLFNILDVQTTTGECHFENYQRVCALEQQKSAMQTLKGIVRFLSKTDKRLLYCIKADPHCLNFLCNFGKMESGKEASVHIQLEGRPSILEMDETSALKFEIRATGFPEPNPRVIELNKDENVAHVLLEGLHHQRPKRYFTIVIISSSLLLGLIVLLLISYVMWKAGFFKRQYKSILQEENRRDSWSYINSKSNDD
Sequence of α4β7 integrin (P26010 20-798): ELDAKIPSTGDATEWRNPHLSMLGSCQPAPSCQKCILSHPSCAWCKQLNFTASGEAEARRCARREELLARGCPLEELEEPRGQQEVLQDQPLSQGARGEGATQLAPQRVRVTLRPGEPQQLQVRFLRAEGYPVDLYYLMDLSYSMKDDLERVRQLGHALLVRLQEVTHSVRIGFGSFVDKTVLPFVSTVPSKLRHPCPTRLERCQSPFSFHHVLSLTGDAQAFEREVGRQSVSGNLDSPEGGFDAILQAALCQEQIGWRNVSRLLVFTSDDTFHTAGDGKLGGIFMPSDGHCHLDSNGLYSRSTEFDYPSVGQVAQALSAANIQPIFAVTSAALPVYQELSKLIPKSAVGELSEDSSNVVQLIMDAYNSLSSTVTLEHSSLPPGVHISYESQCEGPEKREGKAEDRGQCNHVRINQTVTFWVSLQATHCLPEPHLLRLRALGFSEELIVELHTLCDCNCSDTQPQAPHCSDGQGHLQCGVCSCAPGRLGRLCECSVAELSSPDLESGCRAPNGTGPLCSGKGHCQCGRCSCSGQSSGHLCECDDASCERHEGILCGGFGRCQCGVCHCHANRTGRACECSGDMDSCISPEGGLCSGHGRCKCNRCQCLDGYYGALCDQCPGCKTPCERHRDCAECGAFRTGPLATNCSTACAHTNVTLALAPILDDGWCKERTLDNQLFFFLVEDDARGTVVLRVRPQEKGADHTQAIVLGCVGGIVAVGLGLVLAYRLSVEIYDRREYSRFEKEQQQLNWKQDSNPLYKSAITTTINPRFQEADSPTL

One test has as its target α4β7 integrin (Homo sapiens (Human), UniProt P13612+P26010). As to the kind of experiment: α4β7 Integrin Cell Capture Assay. In kind it is cell-based. The settings on record: RPMI8866 cells captured on MadCAM-1 extracellular domain-coated plate.
`Cc1cc(-c2nccn2CC(F)(F)F)cc(F)c1C(=O)N[C@@H](Cc1ccc(-c2c(C(F)(F)F)cc(C)n(C)c2=O)c2ncccc12)C(=O)O` [Example 435] gave an EC50 of 0.524 nM.
With `Cc1cc(N2CCOC[C@@H]2C(F)(F)F)cc(F)c1C(=O)N[C@@H](Cc1ccc(-n2c(=O)c3ccncc3n(C)c2=O)c2ncccc12)C(=O)O` [Example 356, (S)-2-(2-fluoro-6-methyl-4-((R)-3-(trifluoromethyl)morpholino)benzamido)-3-(8-(1-methyl-2,4-dioxo-1,4-dihydropyrido[3,4-d]pyrimidin-3(2H)-yl)quinolin-5-yl)propanoic acid], the EC50 came to 0.05 nM.
`Cc1cc(C(F)(F)F)c(-c2ccc(C[C@H](NC(=O)c3c(F)cc(N4C[C@H]5C[C@H]5[C@@H]4C(F)(F)F)cc3F)C(=O)O)c3cccnc23)c(=O)n1C` [Example 483] displayed an EC50 of 0.544 nM.
Still for that read-out and setting: then `Cc1cc(C(F)(F)F)c(-c2ccc(C[C@H](NC(=O)c3c(F)cc(N4CCOC[C@@H]4C(F)(F)F)cc3C3CC3)C(=O)O)c3cccnc23)c(=O)n1C` [Example 463], with 0.205 nM; and `Cc1cc2c(=O)n(-c3ccc(C[C@H](NC(=O)c4c(C)cc(N5CCOC[C@@H]5C(F)(F)F)cc4F)C(=O)O)c4cccnc34)c(=O)n(C)c2cn1` [Example 425], with 0.185 nM; and `Cc1cc(N2CCOC[C@@H]2C(F)(F)F)cc(F)c1C(=O)N[C@@H](Cc1ccc(-n2c(=O)c3cc(F)ncc3n(C)c2=O)c2ncccc12)C(=O)O` [Example 420], with 0.116 nM.

The same test, now with this note: Table 1; capture of α4β7 expressing RPM18866 cells on MadCAM-1 extracellular domain-coated plate.
As to `CC[C@H](C)Nc1cc(F)c(C(=O)N[C@@H](Cc2ccc(-c3c(C(F)(F)F)cc(C)n(C)c3=O)c3ncccc23)C(=O)O)c(F)c1` [Example 134, (S)-2-(4-(((S)-sec-butyl)amino)-2,6-difluorobenzamido)-3-(8-(1,6-dimethyl-2-oxo-4-(trifluoromethyl)-1,2-dihydropyridin-3-yl)quinolin-5-yl)propanoic acid], a half-maximal effect (EC50) was put at 4.2 nM.
Still for that read-out and setting: then `O=C(N[C@@H](Cc1ccc(-c2ncc3ccccc3c2C(F)(F)F)c2ncccc12)C(=O)O)c1c(F)cccc1F` [Example 71, (S)-2-(2,6-difluorobenzamido)-3-(8-(4-(trifluoromethyl)isoquinolin-3-yl)quinolin-5-yl)propanoic acid], with 9.5 nM; and `O=C(N[C@@H](Cc1ccc(-c2ccc(C(F)(F)F)cn2)c2ncccc12)C(=O)O)c1c(F)cc(NS(=O)(=O)c2ccc(-c3ccnc(F)c3)cc2)cc1F` [Example 57, (S)-2-(2,6-difluoro-4-((4-(2-fluoropyridin-4-yl)phenyl)sulfonamido)benzamido)-3-(8-(5-(trifluoromethyl)pyridin-2-yl)quinolin-5-yl)propanoic acid], with 30 nM.
Still for that read-out and setting: then `CC[C@@H](Nc1cc(F)c(C(=O)N[C@@H](Cc2ccc(-c3c(C(F)(F)F)cc(C)n(C)c3=O)c3ncccc23)C(=O)O)c(Cl)c1)C(F)(F)F` [Example 144, (S)-2-(2-chloro-6-fluoro-4-(((R)-1,1,1-trifluorobutan-2-yl)amino)benzamido)-3-(8-(1,6-dimethyl-2-oxo-4-(trifluoromethyl)-1,2-dihydropyridin-3-yl)quinolin-5-yl)propanoic acid], with 0.2 nM; and `Cc1cc(C(F)(F)F)c(-c2ccc(C[C@H](NC(=O)c3c(F)cc(N4CCOC[C@@H]4C(F)(F)F)cc3F)C(=O)O)c3cccnc23)c(=O)n1C` [Example 96, (S)-2-(2,6-difluoro-4-((R)-3-(trifluoromethyl)morpholino)benzamido)-3-(8-(1,6-dimethyl-2-oxo-4-(trifluoromethyl)-1,2-dihydropyridin-3-yl)quinolin-5-yl)propanoic acid], with 0.2 nM.
Still for that read-out and setting: then `CC[C@@H](Nc1cc(F)c(C(=O)N[C@@H](Cc2ccc(-c3c(C(F)(F)F)cc(C)n(C)c3=O)c3ncccc23)C(=O)O)c(F)c1)C(F)(F)F` (single isomer, unassigned) [Example 147], with 1.9 nM; and `CC[C@@H](Nc1cc(F)c(C(=O)N[C@@H](Cc2ccc(-c3nccc(OC)c3C(F)(F)F)c3ncccc23)C(=O)O)c(F)c1)C(F)(F)F` [Example 92, (S)-2-(2,6-difluoro-4-(((R)-1,1,1-trifluorobutan-2-yl)amino)benzamido)-3-(8-(4-methoxy-3-(trifluoromethyl)pyridin-2-yl)quinolin-5-yl)propanoic acid], with 2 nM; and `Cc1cccc(F)c1C(=O)N[C@@H](Cc1ccc(-c2ccc(C#N)cc2Cl)c2ncccc12)C(=O)O` [Example 1, (S)-3-(8-(2-chloro-4-cyanophenyl)quinolin-5-yl)-2-(2-fluoro-6-methylbenzamido)propanoic acid], with 21.2 nM.

The same test, now with this note: Table 2; capture of α4β7 expressing RPM18866 cells on MadCAM-1 extracellular domain-coated plate.
The molecule `COc1cc(C)n(C)c(=O)c1-c1ccc(C[C@H](NC(=O)c2c(F)cc(N[C@H](C3CC3)C(F)(F)F)cc2F)C(=O)O)c2cccnc12` [Example 166] had an EC50 of 0.4 nM.
Same read-out and setting: next, `CCOCc1cc(OC)c(-c2ccc(C[C@H](NC(=O)c3c(F)cc(CS(=O)(=O)c4ccccc4)cc3F)C(=O)O)c3cccnc23)c(OC)c1` [Example 224]: 2.2 nM; `Cc1cc(C(F)(F)F)c(-c2ccc(C[C@H](NC(=O)c3c(F)cc(N4C[C@H](C)OC[C@H]4C)cc3F)C(=O)O)c3cccnc23)c(=O)n1C` [Example 243]: 2.9 nM; `CC(C)c1cccnc1-c1ccc(C[C@H](NC(=O)c2c(F)cc(N3CCOC[C@@H]3C(F)(F)F)cc2F)C(=O)O)c2cccnc12` [Example 248]: 3 nM.
For the molecule `CC[C@@H](Nc1cc(F)c(C(=O)N[C@@H](Cc2ccc(-c3c(C(F)F)cc(C)n(C)c3=O)c3ncccc23)C(=O)O)c(F)c1)C(F)(F)F` [Example 167], a half-maximal effect (EC50) was put at 0.4 nM.
For the molecule `CC(=O)Cc1cc(F)c(C(=O)N[C@@H](Cc2ccc(-c3ccc(C#N)cc3Cl)c3ncccc23)C(=O)O)c(F)c1` [Example 221], the EC50 came out at 48.2 nM.
Still for that read-out and setting: then `N#Cc1ccc(-c2ccc(C[C@H](NC(=O)c3c(F)cc(NC4(C(F)F)CC4)cc3F)C(=O)O)c3cccnc23)c(Cl)c1` [Example 284], with 45.9 nM.
For `CC[C@@H](Nc1cc(F)c(C(=O)N[C@@H](Cc2ccc(-c3cn(C)c(=O)cc3C(F)(F)F)c3ncccc23)C(=O)O)c(F)c1)C(F)(F)F` [Example 296], the EC50 came to 7.7 nM.
Still for that read-out and setting: then `Cc1cc(C(F)(F)F)c(-c2ccc(C[C@H](NC(=O)c3c(F)cccc3F)C(=O)O)c3cccnc23)c(=O)n1C` [Example 218], with 2.1 nM; and `N#Cc1ccc(-c2ccc(C[C@H](NC(=O)c3c(Cl)cc4nc[nH]c4c3Cl)C(=O)O)c3cccnc23)c(Cl)c1` [Example 323], with 17.1 nM; and `COCCNC(=O)c1cc(F)c(C(=O)N[C@@H](Cc2ccc(-c3ccc(C#N)cc3Cl)c3ncccc23)C(=O)O)c(F)c1` [Example 178], with 37.1 nM.
For the molecule `Cc1cnc(-c2ccc(C[C@H](NC(=O)c3c(F)cc(N4CCOC[C@@H]4C(F)(F)F)cc3F)C(=O)O)c3cccnc23)c(N(C)C)c1` [Example 277], the EC50 stood at 5.2 nM.
In turn, `N#Cc1ccc(-c2ccc(C[C@H](NC(=O)c3c(F)cccc3OC(F)F)C(=O)O)c3cccnc23)c(Cl)c1` [Example 222] came in with an EC50 of 48.3 nM.
In the case of `N#Cc1ccc(-c2ccc(C[C@H](NC(=O)c3c(F)cc(NC4(C(F)(F)F)CC4)cc3F)C(=O)O)c3cccnc23)c(Cl)c1` [Example 229], the 50% effective concentration (EC50) turned out to be 60.5 nM.
Turning to `CC[C@@H](Nc1cc(F)c(C(=O)N[C@H](Cc2ccc(-c3c(C(F)(F)F)cc(C)n(C)c3=O)c3ncccc23)C(=O)O)c(F)c1)C(F)(F)F` [Example 253], the EC50 stood at 3.2 nM.
